The test system of test [1] is 468 known kinases. Briefly: Kinome scan (binding). The text has this:
Induction of the unfolded protein response (UPR) is a known biological response to SCD1 inhibition in tumor cells. […] The addition of exogenous OA was sufficient to reverse the activation of ATF6 (Figure 4b). Moreover, exogenous OA inhibited SSI-(1-4) mediated upregulation of the UPR markers BiP (heat shock 70 kDa protein) and CHOP (damage inducible transcript 3) protein levels in both A498 and ACHN cells (Figure 4c). Collectively these findings confirm that SSI-(1-4) reliably recapitulates the biological responses observed in tumor cells treated with known SCD1 inhibitors. […] Thus, SSI-4 is not predicted to have any major off-target effects through kinase inhibition (Supplementary Figures 7 and 8). […]
of PLS factors. T-value filter (t-value < 2.0) was used to eliminate independent variables overly sensitive to incremental changes from the training set. For structural components, both atom-based and pharmacophore features based were examined.
The regression with m PLS factors, fitted to activities is given as: […]
i =1 , where m = number of PLS factors, b is regression coefficient, vector y represents activity values in the training set. […]
A final Z-filtering mechanism was applied to reduce the dataset to a few select compounds for synthesis and experimental screening by using combined normalized scoring. The final Z-score for each compound was determined as: […]

Test [2] deals with ACHN. The test is described as follows: Proliferation dose-response IC50, ACHN. Type of test: cell-based. As to conditions: Homo sapiens, proliferative IC50, linear regression modeling of dose-response. Here is the method:
Error bars indicate standard deviation for n=2 replicates. […] To evaluate inhibition of SCD1 by these molecules, we used LC/MS to quantify changes in SCD1-catalyzed conversion of stearoyl-CoA to oleoyl-CoA in response to drug treatments in vitro using SCD1 protein extracted from murine liver (Figure 3c, Supplementary Figure 2g). […] Synthesis routes and spectral data including NMR and MS are also provided (Supplementary Figures 3-6).
Cells were seeded at 5,000 cells/well in clear-bottom 96-well plates in triplicate. Drug treatment was applied at 1:1000 in reduced serum conditions (3%). […] Alternatively, cells were plated 2x10^5/well in 12-well plates (Genesee Scientific) in triplicate prior to drug treatment. After 120-hour treatment, cell number was established using a Coulter Particle Counter (Beckman). Oleic acid-albumin (Sigma Aldrich) was added to media at 5µM, and was applied adjuvant to drug treatment. Drug stocks were prepared in DMSO (Sigma) at 1000x. IC50 dosing per cell line was calculated using CalcuSyn analytical software.

In test [3] the target is T1, SCD1 protein extracted from murine liver (Mus musculus, UniProt P13516).
T1 construct: Microsomes were isolated from murine liver using Microsome Isolation Kit (BioVision); from tissue; host or cells: murine liver microsomes
T1 sequence (P13516 1-355): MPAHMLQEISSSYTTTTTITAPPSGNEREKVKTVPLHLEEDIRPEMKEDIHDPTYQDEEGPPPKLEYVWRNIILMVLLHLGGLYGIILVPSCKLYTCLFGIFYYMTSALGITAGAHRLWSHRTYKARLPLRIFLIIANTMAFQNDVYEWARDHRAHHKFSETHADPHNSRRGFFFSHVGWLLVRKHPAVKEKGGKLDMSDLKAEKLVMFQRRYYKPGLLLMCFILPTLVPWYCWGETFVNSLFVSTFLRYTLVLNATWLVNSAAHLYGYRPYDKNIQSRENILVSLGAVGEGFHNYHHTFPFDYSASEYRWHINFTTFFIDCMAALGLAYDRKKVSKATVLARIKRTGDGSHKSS
Briefly: In vitro SCD1 enzymatic inhibition by LC/MS (stearoyl-CoA to oleoyl-CoA, liver microsomes). Type of test: biochemical. To be noted: n=2. From the text:
After synthesis feasibility and cost analysis, we synthesized 38 of the selected compounds. […] To evaluate inhibition of SCD1 by these molecules, we used LC/MS to quantify changes in SCD1-catalyzed conversion of stearoyl-CoA to oleoyl-CoA in response to drug treatments in vitro using SCD1 protein extracted from murine liver (Figure 3c, Supplementary Figure 2g). […] Synthesis routes and spectral data including NMR and MS are also provided (Supplementary Figures 3-6).
Microsomes were isolated from murine liver using Microsome Isolation Kit (BioVision) per the manufacturer protocol. […] To quantify biotransformation of ^13C18-stearoyl CoA to ^13C18-oleoyl CoA for drug treatments relative to vehicle controls, supernatants were evaluated using the LC/MS^2 acyl CoA quantitation method of Magnes et al. and adapting selected reaction monitoring (SRM) for isotope-labeled acyl CoAs. […] SRM signal areas for isotope-labeled acyl CoAs were measured relative to the heptadecanoyl CoA I.S. using XCalibur software (Thermo), and percent enzyme inhibition determined by comparing ^13C18-oleoyl CoA quantities between treatment and DMSO control assays. […]
Background: Microsomes from liver hold many membrane-bound enzymes, among them those of drug oxidation.

Experimental findings from paper PMC5787466, “Accelerated bottom-up drug design platform enables the discovery of novel stearoyl-CoA desaturase 1 inhibitors for cancer therapy” (Oncotarget, 2017) are described below.

With `CNC(=O)c1ccnc(NC(=O)N2CCC(Oc3ccccc3Cl)CC2)c1` [SSI-4], the “number of 403 non-mutant kinases bound” value was “none” in test [1] (10 nM) and 1 in test [1] (100 nM, the kinase bound is CDKL2). Also, the IC50 in test [2] stood at 0.003 µM; in test [3] it was 1.9 nM.

The IC50 is the concentration that gives 50% inhibition.
